Assay results: patent US20130324522A1, “INSECT ODORANT RECEPTOR ANTAGONISTS” (THE ROCKEFELLER UNIVERSITY, priority 2010, published 2013)
Where two headings read alike, the source gives them in different places.

Biological target: OR28/OR7 (Anopheles gambiae, UniProt A0A1S4GFY3+Q7QCC7)
Assay: Ca2+-imaging of stable HEK293T cell line OR28/OR7
Type: cell-based
Conditions: for inhibition at 4 µM: HEK-293T, read-out: Percent Inhibition OR28 OR7
Protocol: Full-length cDNAs for mosquito (Anopheles gambiae) odorant receptor (OR1, OR2, OR7, OR8, OR28), and fly (Drosophila melanogaster) odorant receptor (Or47a, Or83b), mouse TRP channel (TRPM8), and mouse serotonin receptor (5HT3) were obtained and subcloned into mammalian expression vectors. The following mammalian expression vectors were used:
Stable cell lines OR1/OR7, OR2/OR7, OR8/OR7, OR10/OR7, OR28/OR7 and TRPM8 were generated from HEK293T cells. HEK293T-based cell lines were cultured in DMEM supplemented with these additional antibiotics: 6 μg/mL blasticidin and 1 μg/mL puromycin, with the exception of the TRPM8 cell lines, which was cultured in DMEM supplemented with 1 μg/mL puromycin.
Cells were trypsinized and split into 35 mm dishes one day before transfection. Confluent cells (60-70%) in 35 mm dishes were transfected with 1 μg of insect OR(X) plasmids in pME18s-bla and 1 μg of OR7-pME18s-puro using lipofectamine 2000. For Anopheles odorant receptors, two plasmids were co-transfected into HEK cells: the ligand-specific receptor (OR1, OR2, OR8, OR28) and the corresponding olfactory co-receptor: OR7. Cell lines containing TRPM8 were transfected with single plasmid.
Stable cell lines were cultured in 10 cm dishes, and confluent cells (70-80%) were trypsinized. 10,000 cells/20 μL were transferred into each well of 384-well plates coated with poly-D-lysine, and cultured for 2 days. For Flip-In T-Rex cells (cell lines expressing Or47a/Or83b and 5HT3), 5 μL of tetracycline (5 μg/mL) were added 1 day before the assay. 20 μL of Ca-4 dye was loaded into each well for 1.5 hr at room temperature in the dark, and the dye-loaded plates were subjected to Ca^2+-imaging using a Hamamatsu FDSS6000 real time fluorescence plate reader. Odorant solutions (9× final concentration) were prepared by dissolving 1M stock solutions into Hank's Buffered Salt Solution (HBSS), and 30 μL of odor solution was transferred to each well in 384-well plates.
Compounds ([…] in DMSO) were stored in 384-well plates, and last two columns (32 wells total) contained only DMSO. 200 nL of small compounds were transferred into the odorant plates before the assay using the Perkin-Elmer Janus workstation. The odorant plates were spun down to remove air bubbles, and placed on the FDSS6000 plate loader, and 5 μL of odorant solution was applied to the cell plate on the FDSS6000. Ca^2+ increase was monitored with fluorescence at 525 nm by excitation at 485 nm.

Sequence of OR28/OR7 (A0A1S4GFY3 entry or part of it): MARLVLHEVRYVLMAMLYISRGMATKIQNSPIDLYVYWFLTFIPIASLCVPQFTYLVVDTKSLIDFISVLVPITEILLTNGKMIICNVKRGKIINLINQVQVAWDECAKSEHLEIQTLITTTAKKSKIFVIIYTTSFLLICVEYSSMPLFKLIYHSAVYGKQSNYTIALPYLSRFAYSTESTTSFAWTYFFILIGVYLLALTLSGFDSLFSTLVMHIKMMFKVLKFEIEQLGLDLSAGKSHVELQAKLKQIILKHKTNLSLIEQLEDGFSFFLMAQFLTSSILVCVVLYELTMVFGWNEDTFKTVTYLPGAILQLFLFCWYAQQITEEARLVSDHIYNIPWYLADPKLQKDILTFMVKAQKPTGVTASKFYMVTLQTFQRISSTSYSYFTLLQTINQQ
Sequence of OR28/OR7 (Q7QCC7 whole entry): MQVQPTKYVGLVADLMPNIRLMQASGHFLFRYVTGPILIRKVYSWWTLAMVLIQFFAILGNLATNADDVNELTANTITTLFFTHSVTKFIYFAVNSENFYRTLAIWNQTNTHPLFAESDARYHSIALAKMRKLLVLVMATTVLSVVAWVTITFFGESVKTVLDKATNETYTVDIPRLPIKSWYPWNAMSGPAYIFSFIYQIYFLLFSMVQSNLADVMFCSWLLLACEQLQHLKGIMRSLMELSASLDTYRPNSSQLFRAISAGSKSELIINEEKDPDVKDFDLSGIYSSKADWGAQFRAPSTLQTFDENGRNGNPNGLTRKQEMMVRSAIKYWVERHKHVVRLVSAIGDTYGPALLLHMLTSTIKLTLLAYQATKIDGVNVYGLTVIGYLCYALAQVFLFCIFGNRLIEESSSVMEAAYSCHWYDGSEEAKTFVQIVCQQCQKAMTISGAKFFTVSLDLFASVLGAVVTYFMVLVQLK

SMILES | inhibition at 4 µM (compound applied at 4 μM) | IC50 (Table B, read-out: IC50 OR28) | IC50 | inhibition at 4 µM
CCOC(=O)CCC(=O)N(CCc1ccccc1)CC(=O)Nc1cc(C(C)(C)C)nn1-c1ccccc1C [RU-0072462] | > 75% | < 100 nM |  | 
COCCN(Cc1nccn1Cc1c(F)cccc1Cl)C(=O)CCc1ccccc1 [RU-0058550] | > 75% | < 100 nM |  | 
O=C(c1ccco1)N(Cc1ccco1)Cc1nccn1Cc1ccccc1F [RU-0047694] | > 75% | < 100 nM |  | 
COc1ccccc1CC(=O)N1CCOC(COc2ccc(C)cc2)C1 (stereo not shown) [RU-0050390] | > 75% | < 100 nM |  | 
Cc1cc(C)c(Cn2ccnc2CN(C(=O)c2ccccc2F)C(C)C)c(C)c1 [RU-0048001] | > 75% | < 100 nM |  | 
O=C(Cc1cccc(F)c1)N1CCOC(COCc2c(Cl)cccc2Cl)C1 (stereo not shown) [RU-0050398] | > 75% | 100 to 1000 nM |  | 
O=C(c1ccco1)N(Cc1nccn1Cc1c(F)cccc1Cl)C1CC1 [RU-0048046] | > 75% | < 100 nM |  | 
CC(C)CN(Cc1nccn1Cc1ccc(Cl)cc1Cl)C(=O)c1ccccc1F [RU-0055322] | > 75% | < 100 nM |  | 
Cc1cc(N(C)C2CCCCC2)nc(SCc2cccc(C(=O)N3CCCC3)c2)n1 [RU-0034108] | 26 to 50% |  |  | 
COc1ccc(OCC(=O)N2CCOC(Cc3ccccc3)C2)cc1 (stereo not shown) [RU-0050384] | > 75% | 100 to 1000 nM |  | 
CCCCCCCC(=O)N1CCCC(C(=O)NC2CCCC[C@H]2NC(=O)c2ccccc2C)C1 (stereo partly shown) [RU-0045756] | 51 to 74% | > 1000 nM |  | 
CCNc1nc(NC(C)C)nc(N(C#N)Cc2ccccc2)n1 [RU-0015806] | > 75% | < 100 nM |  | 
C=CCN(Cc1nccn1Cc1ccccc1F)C(=O)C1CCCC1 [RU-0058964] | > 75% | < 100 nM |  | 
CCN(CC)C(=O)Oc1ccc2c(ccn2Cc2cccc(C)c2)c1NC(=O)CCCCC(=O)OC [RU-0075445] |  |  | < 100 nM | > 75%
CC(C)CN(Cc1nccn1Cc1c(F)cccc1Cl)C(=O)c1ccc(F)cc1 [RU-0048054] | < 25% | < 100 nM |  | 
O=C(c1cccnc1Cl)N1CCOC(COCc2c(Cl)cccc2Cl)C1 (stereo not shown) [RU-0050372] | > 75% | < 100 nM |  | 
CC(C)N(Cc1nccn1Cc1c(F)cccc1Cl)C(=O)c1ccc(Cl)cc1 [RU-0055364] | > 75% | < 100 nM |  | 
Fc1ccccc1/C=N/Nc1nc(N2CCCCC2)nc(N2CCOCC2)n1 [RU-0018338] | 51 to 74% | < 100 nM |  | 
COCCCN(Cc1c(-c2ccccc2)noc1N(C)C(C)C)C(=O)c1ccccc1OC [RU-0037003] | > 75% | < 100 nM |  | 
COc1cccc(-c2nnc(SCCCC(=O)N3CCN(C(=O)CC(C)(C)C)C(C)C3)n2-c2ccc(C)cc2)c1 (stereo not shown) [RU-0071818] | > 75% | < 100 nM |  | 
CCN(C)c1onc(-c2ccccc2)c1CN(CCCOC)C(=O)c1ccco1 [RU-0051926] | > 75% | > 1000 nM |  | 
COCCCN(Cc1c(-c2ccccc2)noc1N1CCC(C)CC1)C(=O)c1ccccc1F [RU-0036876] | > 75% | < 100 nM |  | 
Cc1ccccc1C(=O)N[C@@H]1CCCCC1NC(=O)C1CCN(C(=O)c2cc(C(F)(F)F)cc(C(F)(F)F)c2)CC1 (stereo partly shown) [RU-0045778] | 51 to 74% | < 100 nM |  | 
COc1cccc(NC(=O)CCC2CCN(C(=O)CSc3ccccc3)CC2)c1 [RU-0032474] | 51 to 74% | < 100 nM |  | 
CC(=O)OCC(=O)NCC1Cc2cc(Oc3ccccc3)ccc2O1 (stereo not shown) [RU-0079120] | > 75% | < 100 nM |  | 
COc1ccc(-c2cc(-c3ccccc3)n(C(=O)CN3CCN(Cc4ccccc4)CC3)n2)cc1 [RU-0038795] | > 75% | < 100 nM |  | 
C=CCN(Cc1nccn1Cc1ccccc1C)C(=O)CC(C)C [RU-0058298] | > 75% | < 100 nM |  | 
COCCN(Cc1c(-c2ccccc2)noc1N(C)C1CCCCC1)C(=O)c1ccccc1OC [RU-0037275] | > 75% | < 100 nM |  | 
